Measured values taken from patent US20100022766A1, “BIOSYNTHETIC GENE CLUSTER FOR THE PRODUCTION OF A COMPLEX POLYKETIDE” (WYETH, priority 2008, published 2010).

B1: GDNF: glial-derived neurotrophic factor, used as control (protein, UniProt P39905 78-211, looked up)
Glial cell line-derived …: SPDKQMAVLPRRERNRQAAAANPENSRGKGRRGQRGKNRGCVLTAIHLNVTDLGLGYETKEELIFRYCSGSCDAAETTYDKILKNLSRNRRLVSDKVGQACCRPIAFDDDLSFLDDNLVYHILRKHSAKRCGCI

Experiments:
[1] = system: mesencephalic dopanergic neuron cultures; assay: high-affinity 3H-DA uptake in ventral mesencephalic cultures, with or without MPP+ exposure; assay type: cell-based, rat; conditions: for protection against MPP toxicity: pre-treatment 1 hr or 24 hr, then MPP+ for 1 hr, recovery 24 hr or 48 hr, 3H-DA uptake readout
Procedure: Ventral mesencephalic cultures were prepared from E15 rat embryos and maintained for […] before experimentation according to the method of Pong et al., J Neurochem.
Cultures were then exposed to 10 μM 1-methyl-4-phenylpyridinium (MPP+) for 1 hr, in the presence of drug. After the 1 hr exposure, media was changed 3×, and fresh drug was added for an additional 24 hr or 48 hr.

[2] = target: FKBP12 (Homo sapiens, UniProt P62942); conditions: cited from earlier work
[3] = cited from earlier work
[4] = system: cultured cortical neurons; assay: neurofilament content in cultured cortical neurons; assay type: cell-based, rat; conditions: 72 hours
Procedure: Dissociated cortical neuron cultures were prepared as previously described [Pong et al., Exp Neurol. 2001 September; 171(1):84-97 (2001)]. Briefly, embryonic day 15 rat fetuses were collected and dissected in ice-cold PBS. Dissected cortices were pooled together and transferred to an enzymatic dissociation medium containing papain. After 30 min, the tissue was mechanically triturated with a fire-polished glass Pasteur pipette. Single-cell suspensions in complete media were seeded on poly-L-ornithine and laminin coated 96-well plates. 24 hours later, cultures were treated with various concentrations of compound of formula (III) for 72 hours. The cultures were then fixed and stained with a neurofilament primary antibody and a peroxidase-tagged secondary antibody. A peroxidase substrate (K-Blue Max) was added and the calorimetric change was measure on a calorimetric plate reader.

[5] = system: cultured dorsal root ganglia; assay: total neurite length in cultured dorsal root ganglia; assay type: cell-based, rat; conditions: 72 hours
Procedure: Dissociated dorsal root ganglia cultures were prepared as previously described [A. Wood et al., “Stimulation of neurite outgrowth by immunophilin ligands: quantitative analysis by Cellomics Array scan” Society for Neuroscience (2004), abstract 104.31. Briefly, postnatal day 3-5 rat pups were euthanized. The spinal columns were removed and individual dorsal root ganglia (DRG) were dissected out. Dissected DRG were pooled together and transferred to an enzymatic dissociation medium containing papain. After 60 minutes, the tissue was mechanically triturated with a fire-polished glass Pasteur pipette. Single-cell suspensions in complete media were seeded on poly-L-ornithine and laminin coated 96-well plates. After 24 hours, cultures were treated with various concentrations of the compound of formula III for 72 hours. The cultures were then fixed and stained with an anti-tubulin primary antibody (TUJ-1) and a fluorescent-tagged secondary antibody. Neurite outgrowth was determined by using the Enhanced Neurite Outgrowth (ENO) algorithm with the Cellomics ArrayScan and expressed as total neurite length per cell.

[6] = system: cultured cortical neurons; assay: total neurite length in cultured cortical neurons; assay type: cell-based, rat; conditions: 72 hours
Procedure: Dissociated cortical neuron cultures were prepared as previously described (Pong et al., cited above, 2001). Briefly, embryonic day 15 rat fetuses were collected and dissected in ice-cold PBS. Dissected cortices were pooled together and transferred to an enzymatic dissociation medium containing papain. After 30 minutes, the tissue was mechanically triturated with a fire-polished glass Pasteur pipette. Single-cell suspensions in complete media were seeded on poly-L-ornithine and laminin coated 96-well plates. After 24 hours, cultures were treated with various concentrations of the compound of formula III for 72 hours. The cultures were then fixed and stained with an anti-tubulin primary antibody (TU-1) and a fluorescent-tagged secondary antibody. Neurite outgrowth was determined by using the Enhanced Neurite Outgrowth (ENO) algorithm with the Cellomics ArrayScan and expressed as total neurite length per cell.

[7] = system: cortical neuron cultures; assay: cortical neuron assay, neurite outgrowth (Cellomics ArrayScan ENO); assay type: cell-based; conditions: Rattus norvegicus, Cortical neurone, 72 hours treatment
Procedure: Dissociated cortical neuron cultures were prepared as previously described [Pong et al, “Attenuation of staurosporine-induced apoptosis, oxidative stress, and mitochondrial dysfunction by synthetic superoxide dismutase and catalase mimetics, in cultured cortical neurons”, Exp Neurol. 2001 September; 171(1):84-97.] Briefly, embryonic day 15 rat fetuses were collected and dissected in ice-cold PBS. Dissected cortices were pooled together and transferred to an enzymatic dissociation medium containing papain. After 30 min, the tissue was mechanically triturated with a fire-polished glass Pasteur pipette. Single-cell suspensions in complete media were seeded on poly-L-ornithine and laminin coated 96-well plates. Twenty-four hours later, cultures were treated with various concentrations of compound of formula III for 72 hours. The cultures were then fixed and stained with an anti-tubulin antibody (TUJ-1) and a fluorescent-tagged secondary antibody. Neurite outgrowth was determined by using the Enhanced Neurite Outgrowth (ENO) algorithm with the Cellomics ArrayScan and expressed as average neurite length or neurite length per cell

FKBP12, sequence (P62942 whole entry, species assumed): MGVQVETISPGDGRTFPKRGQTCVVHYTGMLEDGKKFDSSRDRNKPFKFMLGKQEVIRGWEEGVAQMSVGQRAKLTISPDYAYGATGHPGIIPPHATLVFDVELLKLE

Row | Molecule | protection against MPP toxicity [1] | FKBP12 binding activity [2] | neuroprotective activity in vitro [3] | NEUROFILAMENT CONTENT (FOLD-INCREASE ABOVE CONTROL) ([4]; 10 nM) | NEUROFILAMENT CONTENT (FOLD-INCREASE ABOVE CONTROL) ([4]; 100 nM) | NEUROFILAMENT CONTENT (FOLD-INCREASE ABOVE CONTROL) ([4]; 1 μM) | NEUROFILAMENT CONTENT (FOLD-INCREASE ABOVE CONTROL) ([4]; 10 μM) | TOTAL NEURITE LENGTH (% ABOVE CONTROL) ([5]; 10 nM) | TOTAL NEURITE LENGTH (% ABOVE CONTROL) ([5]; 100 nM) | TOTAL NEURITE LENGTH (% ABOVE CONTROL) ([5]; 1 μM) | TOTAL NEURITE LENGTH (% ABOVE CONTROL) ([5]; 10 μM) | TOTAL NEURITE LENGTH (% ABOVE CONTROL) ([6]; 10 nM) | TOTAL NEURITE LENGTH (% ABOVE CONTROL) ([6]; 100 nM) | TOTAL NEURITE LENGTH (% ABOVE CONTROL) ([6]; 1 μM) | TOTAL NEURITE LENGTH (% ABOVE CONTROL) ([6]; 10 μM) | EC50 [7] | DA uptake ([1]; normal cultures, no MPP+)
1 | CC/C1=C\CC(/C(C)=C/C(C)C(C)O)OC(=O)C2CCCCN2C(=O)C(=O)C2(O)OC(CCC2C)CC(O)C(C)C(O)CC(O)CC(O)/C(C)=C/C(C)CC(C)C1O (stereo not drawn) [meridamycin, Meridamycin] | partial, but significant protection | strong FKBP12 binding activity | significant neuroprotective activity in vitro |  |  |  |  |  |  |  |  |  |  |  |  |  | 
2 | CC/C1=C\CC(/C(C)=C/C(C)C(C)O)OC(=O)C2CCCCN2C(=O)CC2(O)OC(CCC2C)CC(O)C(C)C(O)CC(O)CC(O)/C(C)=C/C(C)CC(C)C1O (stereo not drawn) [Example 9, C9-deoxomeridamycin] |  |  |  | 1.9 FOLD-INCREASE ABOVE CONTROL | 2.19 FOLD-INCREASE ABOVE CONTROL | 2.24 FOLD-INCREASE ABOVE CONTROL | 2.29 FOLD-INCREASE ABOVE CONTROL | 17% | 24% | 36% | 64% | 10% | 54% | 86% | 121% | < 1000 nM | 
3 | B1 | partial, but significant protection |  |  |  |  |  |  |  |  |  |  |  |  |  |  |  | enhanced DA uptake
